This note sets out measurements from patent US20110098296A1, “Thiazole And Oxazole Kinase Inhibitors” (priority 2007, published 2011).

Molecules are shown by their SMILES. Structures can show the parent of a compound that is named as a salt.

A word on the IC50: it is the midpoint of a concentration-inhibition curve.

The target in one assay is T1, EGFR (Homo sapiens, UniProt P00533).
T1 construct: made in house; host or cells: baculovirus expression system
The assay can be described thus: EGFR substrate phosphorylation assay (HTRF). The class given is biochemical. Particulars: Method (A): Enzyme Mix incubated with compound at 20° C. for 1 hr, reaction started by adding Substrate Mix. An outline of the steps: (§1)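 Baculovirus-expressed kinase (0.8 nM EGFR or 10 nM ErbB2 in enzyme mix) with Peptide C 0.8 μM and ATP 20 μM (substrate-mix levels), MOPS pH 7.5, MnCl2; 90 min, 20 °C, HTRF anti-phosphotyrosine. Method A adds 1 h enzyme–compound preincubation; B none. pIC50, final compound 0.00027–47.6 μM.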
A general note: TR-FRET usually uses a lanthanide donor and a delayed reading to cut background.

The test system of another assay is BT474 tumor cells. The assay can be described thus: Method B: CellTiter-Glo Growth Inhibition Assay, BT474. Particulars: Homo sapiens, BT-474, 72 h, 3 days. The format is cell-based. The protocol: (§2) Human breast tumor cells (BT474) were cultured in RPMI, (Invitrogen, 22400) containing 10% fetal bovine serum (FBS). Human head and neck tumor cells (HN5) were cultured in low glucose DMEM (Invitrogen, 12320) containing 10% FBS. Human colon tumor cells (Colo205) were cultured in DMEM (Invitrogen, 10564) containing 10% FBS. Human melanoma cancer cells (SK-MEL-28) were incubated in DMEM (Invitrogen). All cell lines were maintained at 37° C. in a humidified 5% CO2, 95% air incubator. Cells were harvested using trypsin/EDTA, counted using a haemocytometer, and plated in 30 μL of the appropriate media described above, at the following densities, in a half-area, black-walled, 96-well tissue culture plate (Corning 3882): BT474 3,000 cells/well, HN5 500 cells/well, Colo205 3,000 cells/well, and SK-MEL-28 500 cells/well). The next day, compounds were diluted in DMEM containing […] gentamicin, from 10 mM stock solutions in DMSO. 30 μL/well of these dilutions were added to the 30 μL/well of media currently on the cell plates. Medium containing 0.6% DMSO was added to control wells. The final concentration of DMSO in all wells was 0.3%. Cells were incubated at 37° C., 5% CO2 for 3 days. Cell biomass was estimated using CellTiter-Glo® reagent (Promega G7571). Briefly, plates were removed from the incubator and allowed to equilibrate to rt for 30 minutes. 25-60 μL of CellTiter-Glo® reagent were added to each well of the treated cells and plates were shaken on an orbital plate shaker for 2 mins. Plates were incubated without shaking for 30 more mins and read in a luminometer with an integration time of 0.5 seconds per well. Percent inhibition of cell growth was calculated relative to vehicle-treated control wells. Concentration of compound that inhibits 50% of vehicle control cell growth (IC50) was interpolated using nonlinear regression (Levenberg-Marquardt) and the equation, y=V max*(1−(x/(K+x)))+Y2, where “K” was equal to the IC50.

Another assay has as its target T2, ErbB2 (Homo sapiens, UniProt P04626).
T2 construct: made in house; host or cells: baculovirus expression system
The assay can be described thus: ErbB-2 substrate phosphorylation assay (HTRF). The following applies: Method (A): Enzyme Mix incubated with compound at 20° C. for 1 hr, reaction started by adding Substrate Mix. The format is biochemical. Summed up:
as §1

In the next assay the test system is HN5 tumor cells. The assay can be described thus: Method B: CellTiter-Glo Growth Inhibition Assay, HN5. The format is cell-based. The following applies: Homo sapiens, 72 h, 3 days. The method, then: as §2
(In general: In ATP-based viability assays light output follows the ATP content of the culture.)

The test system of another assay is Colo205 tumor cells. The assay can be described thus: Method B: CellTiter-Glo Growth Inhibition Assay, Colo205. The class given is cell-based. The following applies: Homo sapiens, COLO 205, 72 h, 3 days. The method, then: as §2

T1 sequence (P00533 25-1210): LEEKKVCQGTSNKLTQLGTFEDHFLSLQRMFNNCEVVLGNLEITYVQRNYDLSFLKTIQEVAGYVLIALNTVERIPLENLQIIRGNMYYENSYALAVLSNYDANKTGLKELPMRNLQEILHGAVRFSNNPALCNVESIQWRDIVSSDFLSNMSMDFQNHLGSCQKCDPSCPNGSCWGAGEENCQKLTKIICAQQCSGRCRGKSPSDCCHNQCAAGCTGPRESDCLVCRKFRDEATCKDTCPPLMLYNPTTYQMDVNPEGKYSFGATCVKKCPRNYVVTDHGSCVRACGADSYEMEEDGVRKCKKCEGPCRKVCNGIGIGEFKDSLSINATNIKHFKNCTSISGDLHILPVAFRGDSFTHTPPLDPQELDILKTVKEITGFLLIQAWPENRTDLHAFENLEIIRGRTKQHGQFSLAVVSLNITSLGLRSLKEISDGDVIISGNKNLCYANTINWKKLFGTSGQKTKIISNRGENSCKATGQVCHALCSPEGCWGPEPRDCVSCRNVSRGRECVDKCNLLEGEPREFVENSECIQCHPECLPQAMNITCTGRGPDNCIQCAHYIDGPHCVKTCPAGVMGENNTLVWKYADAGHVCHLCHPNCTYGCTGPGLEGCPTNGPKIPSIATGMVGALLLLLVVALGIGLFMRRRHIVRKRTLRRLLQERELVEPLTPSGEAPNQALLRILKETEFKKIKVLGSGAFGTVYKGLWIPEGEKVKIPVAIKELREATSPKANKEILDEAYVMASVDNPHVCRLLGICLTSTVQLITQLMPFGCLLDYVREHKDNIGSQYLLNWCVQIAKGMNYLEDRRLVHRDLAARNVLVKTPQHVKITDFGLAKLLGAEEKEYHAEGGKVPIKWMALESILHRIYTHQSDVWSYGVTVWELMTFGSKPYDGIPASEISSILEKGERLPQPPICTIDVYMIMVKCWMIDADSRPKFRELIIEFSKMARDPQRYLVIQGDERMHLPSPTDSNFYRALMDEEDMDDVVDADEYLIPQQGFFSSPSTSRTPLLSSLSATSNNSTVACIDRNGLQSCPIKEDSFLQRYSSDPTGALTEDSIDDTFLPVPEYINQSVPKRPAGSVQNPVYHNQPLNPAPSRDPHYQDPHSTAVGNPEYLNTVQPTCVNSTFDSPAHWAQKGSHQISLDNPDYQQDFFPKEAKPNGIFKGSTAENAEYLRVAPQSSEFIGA
T2 sequence (P04626 23-1255): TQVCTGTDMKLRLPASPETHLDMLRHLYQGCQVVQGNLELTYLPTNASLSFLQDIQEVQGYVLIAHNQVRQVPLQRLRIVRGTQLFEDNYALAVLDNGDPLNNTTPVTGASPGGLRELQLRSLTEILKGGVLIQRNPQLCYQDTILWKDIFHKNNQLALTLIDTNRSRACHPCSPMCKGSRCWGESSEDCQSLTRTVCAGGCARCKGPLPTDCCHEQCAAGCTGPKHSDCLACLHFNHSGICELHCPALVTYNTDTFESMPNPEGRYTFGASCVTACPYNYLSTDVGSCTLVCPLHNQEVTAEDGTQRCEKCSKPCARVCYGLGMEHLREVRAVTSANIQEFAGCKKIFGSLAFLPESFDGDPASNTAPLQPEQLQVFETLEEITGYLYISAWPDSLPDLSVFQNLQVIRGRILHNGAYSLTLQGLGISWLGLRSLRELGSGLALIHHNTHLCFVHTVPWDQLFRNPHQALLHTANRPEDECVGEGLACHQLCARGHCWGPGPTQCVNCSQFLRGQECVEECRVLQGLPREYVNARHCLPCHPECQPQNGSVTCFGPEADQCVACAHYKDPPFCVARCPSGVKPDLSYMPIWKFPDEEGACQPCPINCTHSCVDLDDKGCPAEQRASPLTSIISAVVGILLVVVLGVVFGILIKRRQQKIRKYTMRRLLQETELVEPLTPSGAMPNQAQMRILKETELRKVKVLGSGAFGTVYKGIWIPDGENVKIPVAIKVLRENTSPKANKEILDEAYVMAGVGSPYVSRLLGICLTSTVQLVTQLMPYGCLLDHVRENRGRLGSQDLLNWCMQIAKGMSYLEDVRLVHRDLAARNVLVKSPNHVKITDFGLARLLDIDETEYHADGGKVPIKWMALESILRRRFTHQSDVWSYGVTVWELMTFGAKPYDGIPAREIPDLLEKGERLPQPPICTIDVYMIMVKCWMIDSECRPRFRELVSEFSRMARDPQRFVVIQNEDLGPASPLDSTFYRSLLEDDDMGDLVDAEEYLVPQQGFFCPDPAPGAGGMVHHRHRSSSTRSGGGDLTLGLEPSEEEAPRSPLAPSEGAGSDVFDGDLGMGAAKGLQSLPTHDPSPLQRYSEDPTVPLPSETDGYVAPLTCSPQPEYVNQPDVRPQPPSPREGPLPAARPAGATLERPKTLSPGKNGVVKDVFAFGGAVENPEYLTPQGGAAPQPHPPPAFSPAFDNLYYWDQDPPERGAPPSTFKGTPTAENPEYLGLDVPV

As for `Nc1nc(-c2cccc(NC(=O)Cc3cccs3)c2)c(-c2ccnc(Nc3cccc(F)c3)n2)s1` [Example 64, N-[3-(2-Amino-5-{2-[(3-fluorophenyl)amino]-4-pyrimidinyl}-1,3-thiazol-4-yl)phenyl]-2-(2-thienyl)acetamide], the IC50 at EGFR is under 100 nM; with BT474 tumor cells, 100 to 1000 nM; at ErbB2, 100 to 1000 nM; in the assay on HN5 tumor cells it was 100 to 1000 nM; in the assay on Colo205 tumor cells, over 1000 nM.
As for `CN(C)Cc1cccc(Nc2nccc(-c3scnc3-c3cccc(NC(=O)Cc4cccs4)c3)n2)c1` [Example 81], the IC50 at EGFR is under 100 nM; with BT474 tumor cells it was 100 to 1000 nM; on ErbB2, under 100 nM; in the assay with HN5 tumor cells it was 100 to 1000 nM; with Colo205 tumor cells, 100 to 1000 nM.
In the case of `O=C(Cc1cccs1)Nc1cccc(-c2ncsc2-c2ccnc(Nc3ccc4c(c3)NC(=O)CO4)n2)c1` [Example 86, N-[3-(5-{2-[(3-Oxo-3,4-dihydro-2H-1,4-benzoxaziN-6-yl)amino]-4-pyrimidinyl}-1,3-thiazol-4-yl)phenyl]-2-(2-thienyl)acetamide hydrochloride], the IC50 on EGFR was under 100 nM; with BT474 tumor cells, 100 to 1000 nM; at ErbB2 it was 100 to 1000 nM; with HN5 tumor cells it was 100 to 1000 nM; in the assay on Colo205 tumor cells it was 100 to 1000 nM.
As for `O=C1COc2ccc(Nc3nccc(-c4scnc4-c4cccc(NC(=O)c5cc(F)ccc5F)c4)n3)cc2N1` [Example 99, 2,5-Difluoro-N-[3-(5-{2-[(3-oxo-3,4-dihydro-2H-1,4-benzoxaziN-6-yl)amino]-4-pyrimidinyl}-1,3-thiazol-4-yl)phenyl]benzamide hydrochloride], the IC50 on EGFR is under 100 nM; with BT474 tumor cells, 100 to 1000 nM; on ErbB2, under 100 nM; in the assay on HN5 tumor cells it was 100 to 1000 nM; in the assay with Colo205 tumor cells, over 1000 nM.
Regarding `CN(C)C1Cc2ccc(Nc3nccc(-c4scnc4-c4cccc(NC(=O)Cc5cccs5)c4)n3)cc2C1` (stereo not drawn) [Example 83, N-{3-[5-(2-{[2-(Dimethylamino)-2,3-dihydro-1H-inden-5-yl]amino}-4-pyrimidinyl)-1,3-thiazol-4-yl]phenyl}-2-(2-thienyl)acetamide], the IC50 at EGFR was under 100 nM; in the assay on BT474 tumor cells, under 100 nM; on ErbB2, under 100 nM; with HN5 tumor cells, 100 to 1000 nM; with Colo205 tumor cells, 100 to 1000 nM.
`CCN(CC)CCOc1cccc(Nc2nccc(-c3scnc3-c3cccc(NC(=O)Cc4cccs4)c3)n2)c1` [Example 82, N-[3-(5-{2-[(3-{[2-(Diethylamino)ethyl]oxy}phenyl)amino]-4-pyrimidinyl}-1,3-thiazol-4-yl)phenyl]-2-(2-thienyl)acetamide]: the IC50 on EGFR was under 100 nM; with BT474 tumor cells, 100 to 1000 nM; at ErbB2, under 100 nM; with HN5 tumor cells, 100 to 1000 nM; in the assay with Colo205 tumor cells it was 100 to 1000 nM.
Consider `Nc1nc(-c2cccc(NC(=O)c3c(F)cccc3F)c2)c(-c2ccnc(Nc3ccc4c(c3)OCC(=O)N4)n2)s1` [Example 9, hydrochloride], for which the IC50 on EGFR was under 100 nM; in the assay with BT474 tumor cells, under 100 nM; at ErbB2 it was under 100 nM; with HN5 tumor cells, under 100 nM; in the assay with Colo205 tumor cells it was over 1000 nM.
For the compound `Nc1nc(-c2cccc(NC(=O)c3c(F)cccc3F)c2)c(-c2ccnc(Nc3ccc4c(c3)NC(=O)CO4)n2)s1` [Example 20, N-[3-(2-Amino-5-{2-[(3-oxo-3,4-dihydro-2H-1,4-benzoxaziN-6-yl)amino]-4-pyrimidinyl}-1,3-thiazol-4-yl)phenyl]-2,6-difluorobenzamide], the IC50 at EGFR was under 100 nM; with BT474 tumor cells it was under 100 nM; on ErbB2, under 100 nM; with HN5 tumor cells it was under 100 nM; in the assay with Colo205 tumor cells, over 1000 nM.
Regarding `COc1ccc(Nc2nccc(-c3scnc3-c3cccc(NC(=O)Cc4cccs4)c3)n2)cc1OCCN(C)C` [Example 78, N-{3-[5-(2-{[3-{[2-(Dimethylamino)ethyl]oxy}-4-(methyloxy)phenyl]amino}-4-pyrimidinyl)-1,3-thiazol-4-yl]phenyl}-2-(2-thienyl)acetamide], the IC50 was under 100 nM on EGFR; 100 to 1000 nM in the assay with BT474 tumor cells; under 100 nM at ErbB2; 100 to 1000 nM with HN5 tumor cells; 100 to 1000 nM in the assay with Colo205 tumor cells.
With `O=C(Nc1cccc(-c2ncsc2-c2ccnc(Nc3ccc4c(c3)CNCC4)n2)c1)c1c(F)cccc1F` [Example 91, 2,6-Difluoro-N-(3-{5-[2-(1,2,3,4-tetrahydro-7-isoquinolinylamino)-4-pyrimidinyl]-1,3-thiazol-4-yl}phenyl)benzamide], the IC50 at EGFR is under 100 nM; in the assay on BT474 tumor cells it was under 100 nM; on ErbB2, under 100 nM; with HN5 tumor cells, under 100 nM; with Colo205 tumor cells it was 100 to 1000 nM.
`O=C1COc2cc(Nc3nccc(-c4scnc4-c4cccc(NC(=O)c5cc(F)ccc5F)c4)n3)ccc2N1` [Example 98, 2,5-Difluoro-N-[3-(5-{2-[(3-oxo-3,4-dihydro-2H-1,4-benzoxaziN-7-yl)amino]-4-pyrimidinyl}-1,3-thiazol-4-yl)phenyl]benzamide hydrochloride]: the IC50 at EGFR was under 100 nM; in the assay with BT474 tumor cells it was under 100 nM; at ErbB2 it was under 100 nM; in the assay on HN5 tumor cells, under 100 nM; with Colo205 tumor cells it was over 1000 nM.
Take `O=C(Nc1cccc(-c2nc(NCCCN3CCOCC3)sc2-c2ccnc(Nc3cccc(F)c3)n2)c1)c1c(F)cccc1F` [Example 30, 2,6-Difluoro-N-[3-(5-{2-[(3-fluorophenyl)amino]-4-pyrimidinyl}-2-{[3-(4-morpholinyl)propyl]amino}-1,3-thiazol-4-yl)phenyl]benzamide]: the IC50 at EGFR is under 100 nM; in the assay with BT474 tumor cells it was 100 to 1000 nM; on ErbB2, under 100 nM; in the assay with HN5 tumor cells, 100 to 1000 nM; with Colo205 tumor cells, over 1000 nM.
With `Cc1nc(-c2cccc(NC(=O)c3c(F)cccc3F)c2)c(-c2ccnc(Nc3cccc(F)c3)n2)s1` [Example 101, 2,6-Difluoro-N-[3-(5-{2-[(3-fluorophenyl)amino]-4-pyrimidinyl}-2-methyl-1,3-thiazol-4-yl)phenyl]benzamide], the IC50 at EGFR was under 100 nM; with BT474 tumor cells, under 100 nM; on ErbB2 it was under 100 nM; in the assay with HN5 tumor cells, under 100 nM; with Colo205 tumor cells, over 1000 nM.
For the compound `Cc1nc(-c2cccc(NC(=O)Cc3cccs3)c2)c(-c2ccnc(Nc3cccc(F)c3)n2)s1` [Example 138, N-[3-(5-{2-[(3-Fluorophenyl)amino]-4-pyrimidinyl}-2-methyl-1,3-thiazol-4-yl)phenyl]-2-(2-thienyl)acetamide], the half-maximal inhibitory concentration (IC50) was 100 to 1000 nM on EGFR; over 1000 nM with BT474 tumor cells; over 1000 nM at ErbB2; over 1000 nM in the assay with HN5 tumor cells; over 1000 nM in the assay on Colo205 tumor cells.
As to `Nc1nc(-c2cccc(NC(=O)c3c(F)cccc3F)c2)c(-c2ccnc(Nc3cccc(F)c3)n2)s1` [Example 7], the IC50 was under 100 nM on EGFR; under 100 nM in the assay with BT474 tumor cells; under 100 nM on ErbB2; under 100 nM in the assay on HN5 tumor cells; over 1000 nM in the assay on Colo205 tumor cells.
